Measured values from US12492173B2, “Herbicidal substituted N-tetrazolyl aryl carboxamides” (Bayer Aktiengesellschaft, priority 2019, dated 2025).

What was measured:
Format in all cases: in vivo
Abutilon theophrasti [1] = assay: Pre-emergence herbicidal action, ABUTH; conditions: dosage 320 g/ha
Excerpt: (§1) 1. Pre-Emergence Herbicidal Action Against Harmful Plants Seeds of monocotyledonous and dicotyledonous weed plants and crop plants are laid out in sandy loam soil in wood-fiber pots and covered with soil. The compounds of the invention, formulated in the form of wettable powders (WP) or as emulsion concentrates (EC), are then applied to the surface of the covering soil in the form of an aqueous suspension or emulsion at a water application rate equating to 600 to 800 l/ha, with addition of 0.2% wetting agent. After the treatment, the pots are placed in a greenhouse and kept under good growth conditions for the trial plants. The damage to the test plants is scored visually after a test period of 3 weeks by comparison with untreated controls (herbicidal activity in percent (%): 100% activity=the plants have died, 0% activity=like control plants). […] The tables below illustrate, in an exemplary manner, the […] herbicidal action of the compounds according to the invention, the herbicidal activity being stated in percent. [table] In the experiments that follow, herbicidal action of numerous inventive compounds and the known compounds that are structurally closest from D1 (WO 2012/028579 A1) and D2 (WO 2018/202535 A1) were compared under the above-specified conditions by the pre-emergence and post-emergence method. The example numbers given in the tables relate to the compounds disclosed in the respective documents. In addition to the compounds disclosed in D1 and D2, the following compounds V-1 to V-14 that are encompassed by D1 or D2 but are not compounds specified therein were used in the comparative experiments: • V-1: 2-(methylsulfanyl)-3-(methylsulfinyl)-N-(1-methyl-1H-tetrazol-5-yl)-4-(trifluoromethyl)benzamide • V-2: 2-(methylsulfanyl)-3-(methylsulfonyl)-N-(1-methyl-1H-tetrazol-5-yl)-4-(trifluoromethyl)benzamide • V-3: 2,3-bis(ethylsulfanyl)-N-(1-methyl-1H-tetrazol-5-yl)-4-(trifluoromethyl)benzamide • V-4: 2-chloro-3-(ethylsulfanyl)-N-(1-methyl-1H-tetrazol-5-yl)-4-(trifluoromethyl)benzamide • V-5: 2-chloro-4-iodo-3-(methylsulfanyl)-N-(1-methyl-1H-tetrazol-5-yl)benzamide • V-6: 2-chloro-4-iodo-3-(methylsulfinyl)-N-(1-methyl-1H-tetrazol-5-yl)benzamide • V-7: 2-chloro-4-iodo-3-(methylsulfonyl)-N-(1-methyl-1H-tetrazol-5-yl)benzamide • V-8: 2-bromo-3-(methylsulfanyl)-N-(1-methyl-1H-tetrazol-5-yl)-4-(trifluoromethyl)benzamide • V-9: 2-bromo-3-(methylsulfinyl)-N-(1-methyl-1H-tetrazol-5-yl)-4-(trifluoromethyl)benzamide • V-10: 2-bromo-3-(methylsulfonyl)-N-(1-methyl-1H-tetrazol-5-yl)-4-(trifluoromethyl)benzamide • V-11: 2-bromo-3-(ethylsulfanyl)-N-(1-methyl-1H-tetrazol-5-yl)-4-(trifluoromethyl)benzamide • V-12: 2-bromo-3-(ethylsulfinyl)-N-(1-methyl-1H-tetrazol-5-yl)-4-(trifluoromethyl)benzamide • V-13: 2-bromo-3-(ethylsulfonyl)-N-(1-methyl-1-1H-tetrazol-5-yl)-4-(trifluoromethyl)benzamide • V-14: 2-cyclopropyl-3-(ethylsulfanyl)-N-(1-methyl-1H-tetrazol-5-yl)-4-(trifluoromethyl)benzamide Herbicidal Pre-Emergence Action: […]

Amaranthus retroflexus [2] = assay: Pre-emergence herbicidal action, AMARE; design: key to Herbicidal action against AMARE: % activity: 100 = plants have died, 0 = like control plants; conditions: for herbicidal action AMARE: dosage 320 g/ha
Excerpt: as §1

Echinochloa crus-galli [3] = assay: Pre-emergence herbicidal action, ECHCG; conditions: dosage 320 g/ha
Excerpt: as §1

Veronica persica [4] = assay: Pre-emergence herbicidal action, VERPE; conditions: dosage 320 g/ha
Excerpt: as §1

Abutilon theophrasti [5] = assay: Post-emergence herbicidal action, ABUTH; design: key: % herbicidal action vs untreated; 100 = plants died, 0 = like control; conditions: for Herbicidal action against ABUTH: post-emergence, dosage 80 g/ha; for herbicidal action ABUTH: Dosage 80 g/ha
Description: (§2) [table] 2. Post-Emergence Herbicidal Action Against Harmful Plants Seeds of monocotyledonous and dicotyledonous weed and crop plants are laid out in sandy loam soil in wood-fiber pots, covered with soil and cultivated in a greenhouse under good growth conditions. 2 to 3 weeks after sowing, the test plants are treated at the one-leaf stage. The compounds of the invention, formulated in the form of wettable powders (WP) or as emulsion concentrates (EC), are then sprayed onto the green parts of the plants in the form of an aqueous suspension or emulsion at a water application rate equating to 600 to 800 l/ha, with addition of 0.2% wetting agent. After the test plants have been left to stand in the greenhouse under optimal growth conditions for about 3 weeks, the action of the preparations is assessed visually in comparison to untreated controls (herbicidal action in percent (%): 100% activity=the plants have died, 0% activity=like control plants). […] The tables below illustrate, in an exemplary manner, the post-emergence herbicidal action of the compounds according to the invention, the herbicidal activity being stated in percent. In the experiments that follow, herbicidal action of numerous inventive compounds and the known compounds that are structurally closest from D1 (WO 2012/028579 A1) and D2 (WO 2018/202535 A1) were compared under the above-specified conditions by the pre-emergence and post-emergence method. The example numbers given in the tables relate to the compounds disclosed in the respective documents. In addition to the compounds disclosed in D1 and D2, the following compounds V-1 to V-14 that are encompassed by D1 or D2 but are not compounds specified therein were used in the comparative experiments: • V-1: 2-(methylsulfanyl)-3-(methylsulfinyl)-N-(1-methyl-1H-tetrazol-5-yl)-4-(trifluoromethyl)benzamide • V-2: 2-(methylsulfanyl)-3-(methylsulfonyl)-N-(1-methyl-1H-tetrazol-5-yl)-4-(trifluoromethyl)benzamide • V-3: 2,3-bis(ethylsulfanyl)-N-(1-methyl-1H-tetrazol-5-yl)-4-(trifluoromethyl)benzamide • V-4: 2-chloro-3-(ethylsulfanyl)-N-(1-methyl-1H-tetrazol-5-yl)-4-(trifluoromethyl)benzamide • V-5: 2-chloro-4-iodo-3-(methylsulfanyl)-N-(1-methyl-1H-tetrazol-5-yl)benzamide • V-6: 2-chloro-4-iodo-3-(methylsulfinyl)-N-(1-methyl-1H-tetrazol-5-yl)benzamide • V-7: 2-chloro-4-iodo-3-(methylsulfonyl)-N-(1-methyl-1H-tetrazol-5-yl)benzamide • V-8: 2-bromo-3-(methylsulfanyl)-N-(1-methyl-1H-tetrazol-5-yl)-4-(trifluoromethyl)benzamide • V-9: 2-bromo-3-(methylsulfinyl)-N-(1-methyl-1H-tetrazol-5-yl)-4-(trifluoromethyl)benzamide • V-10: 2-bromo-3-(methylsulfonyl)-N-(1-methyl-1H-tetrazol-5-yl)-4-(trifluoromethyl)benzamide • V-11: 2-bromo-3-(ethylsulfanyl)-N-(1-methyl-1H-tetrazol-5-yl)-4-(trifluoromethyl)benzamide • V-12: 2-bromo-3-(ethylsulfinyl)-N-(1-methyl-1H-tetrazol-5-yl)-4-(trifluoromethyl)benzamide • V-13: 2-bromo-3-(ethylsulfonyl)-N-(1-methyl-1-1H-tetrazol-5-yl)-4-(trifluoromethyl)benzamide • V-14: 2-cyclopropyl-3-(ethylsulfanyl)-N-(1-methyl-1H-tetrazol-5-yl)-4-(trifluoromethyl)benzamide Herbicidal Pre-Emergence Action: […]

Amaranthus retroflexus [6] = assay: Post-emergence herbicidal action, AMARE; design: key: % herbicidal action vs untreated; 100 = plants died, 0 = like control; conditions: for Herbicidal action against AMARE: post-emergence, dosage 80 g/ha; for herbicidal action AMARE: Dosage 80 g/ha
Description: as §2

Echinochloa crus-galli [7] = assay: Post-emergence herbicidal action, ECHCG; design: key: % herbicidal action vs untreated; 100 = plants died, 0 = like control; conditions: for Herbicidal action against ECHCG: post-emergence, dosage 80 g/ha; for herbicidal action ECHCG: Dosage 80 g/ha
Description: as §2

Pharbitis purpurea = assay: Post-emergence herbicidal action, PHBPU; conditions: for Herbicidal action against PHBPU: post-emergence, dosage 80 g/ha; for herbicidal action PHBPU: Dosage 80 g/ha
Description: as §2

Setaria viridis = assay: Post-emergence herbicidal action, SETVI; design: key: % herbicidal action vs untreated; 100 = plants died, 0 = like control; conditions: for Herbicidal action against SETVI: post-emergence, dosage 80 g/ha; for herbicidal action SETVI: Dosage 80 g/ha
Description: as §2

Veronica persica [8] = assay: Post-emergence herbicidal action, VERPE; design: key: % herbicidal action vs untreated; 100 = plants died, 0 = like control; conditions: for Herbicidal action against VERPE: post-emergence, dosage 80 g/ha; for herbicidal action VERPE: Dosage 80 g/ha
Description: as §2

Viola tricolor [9] = assay: Post-emergence herbicidal action, VIOTR; design: key: % herbicidal action vs untreated; 100 = plants died, 0 = like control; conditions: for Herbicidal action against VIOTR: post-emergence; for herbicidal action VIOTR: Dosage 80 g/ha
Description: as §2

Matricaria inodora [10] = assay: Pre-emergence herbicidal action, MATIN; conditions: dosage 320 g/ha
Excerpt: as §1

Viola tricolor [11] = assay: Pre-emergence herbicidal action, VIOTR; design: key to Herbicidal action against VIOTR: % activity: 100 = plants have died, 0 = like control plants; conditions: for herbicidal action VIOTR: dosage 320 g/ha
Excerpt: as §1

Matricaria inodora [12] = assay: Post-emergence herbicidal action, MATIN; design: key: % herbicidal action vs untreated; 100 = plants died, 0 = like control; conditions: for herbicidal action MATIN: Dosage 80 g/ha; for Herbicidal action against MATIN: post-emergence, dosage 80 g/ha
Description: as §2

Stellaria media [13] = assay: Post-emergence herbicidal action, STEME; design: key: % herbicidal action vs untreated; 100 = plants died, 0 = like control; conditions: for herbicidal action STEME: Dosage 80 g/ha; for Herbicidal action against STEME: post-emergence, dosage 80 g/ha
Description: as §2

Stellaria media [14] = assay: Pre-emergence herbicidal action, STEME; conditions: dosage 320 g/ha
Excerpt: as §1

[15] = comparative experiment, 20 g of a.i./ha

Compound	herbicidal action ABUTH (Abutilon theophrasti [1]) [%]	herbicidal action AMARE (Amaranthus retroflexus [2]) [%]	herbicidal action ECHCG (Echinochloa crus-galli [3]) [%]	herbicidal action VERPE (Veronica persica [4]) [%]	Herbicidal action against ABUTH (Abutilon theophrasti [5])	Herbicidal action against AMARE (Amaranthus retroflexus [6])	Herbicidal action against ECHCG (Echinochloa crus-galli [7])	Herbicidal action against PHBPU (Pharbitis purpurea)	Herbicidal action against VERPE (Veronica persica [8])	Herbicidal action against VIOTR (Viola tricolor [9]; dosage 80 g/ha)	herbicidal action MATIN (Matricaria inodora [10]) [%]	herbicidal action VIOTR (Viola tricolor [11]) [%]	Herbicidal action against STEME (Stellaria media [13])	also measured
COc1c(C(=O)Nc2nnnn2C)ccc(Cl)c1CS(C)(=O)=O [Example 1-572]	80	100	80	80	80	90	90	80	90	80				Herbicidal action against SETVI (Setaria viridis): 80; Herbicidal action against VIOTR (Viola tricolor [9]; comparative experiment, 5 g of a.i./ha): 50
CSCc1c(S(C)(=O)=O)ccc(C(=O)Nc2nnnn2C)c1C [Example 1-37]	80	100		90							80	100		herbicidal action ABUTH (Abutilon theophrasti [5]): 90; herbicidal action AMARE (Amaranthus retroflexus [6]): 100; herbicidal action ECHCG (Echinochloa crus-galli [7]): 100; herbicidal action MATIN (Matricaria inodora [12]): 80; herbicidal action PHBPU (Pharbitis purpurea): 90; herbicidal action SETVI (Setaria viridis): 100; herbicidal action STEME (Stellaria media [13]): 100; herbicidal action VERPE (Veronica persica [8]): 100; herbicidal action VIOTR (Viola tricolor [9]): 100
CCCn1nnnc1NC(=O)c1ccc(C(F)F)c(CS(C)(=O)=O)c1C [Example 3-109]	100	100	100	90		100	90	90	100	100	100	100	100	Herbicidal action against MATIN (Matricaria inodora [12]): 100; Herbicidal action against SETVI (Setaria viridis): 90
Cn1nnnc1NC(=O)c1ccc(C(F)(F)F)c(CS(C)(=O)=O)c1S(C)(=O)=O [Example 1-199]		90	90	100	90	80	80	80	80	90	90		90	
Cc1c(C(=O)Nc2nnnn2C)ccc(Cl)c1C[S+](C)[O-] (stereo not shown) [Example 1-47]														Herbicidal action against AMARE (Amaranthus retroflexus [2]; [15]): 80; Herbicidal action against VIOTR (Viola tricolor [11]; [15]): 30
COc1c(C(=O)Nc2nnnn2C)ccc(Cl)c1C[S+](C)[O-] (stereo not shown) [Example 1-571]	100	90		80										herbicidal action ABUTH (Abutilon theophrasti [5]): 80; herbicidal action AMARE (Amaranthus retroflexus [6]): 80; herbicidal action ECHCG (Echinochloa crus-galli [7]): 90; herbicidal action MATIN (Matricaria inodora [12]): 80; herbicidal action PHBPU (Pharbitis purpurea): 90; herbicidal action SETVI (Setaria viridis): 80; herbicidal action STEME (Stellaria media [13]): 100; herbicidal action VERPE (Veronica persica [8]): 90; herbicidal action VIOTR (Viola tricolor [9]): 80
CCCn1nnnc1NC(=O)c1ccc(I)c(CSC)c1Cl [Example 3-362]					80	80	80					80		Herbicidal action against MATIN (Matricaria inodora [12]): 90
Cc1c(C(=O)Nc2nnnn2C)ccc(S(C)(=O)=O)c1C[S+](C)[O-] (stereo not shown) [Example 1-38]		80		100		100	90		90	80	90		100	herbicidal action STEME (Stellaria media [14]): 90%
